One molecule from US20090163476A1, “N-Phenyl Benzamide Derivatives as Sirtuin Modulators” (Sirtris Pharmaceuticals, Inc., priority 2005, published 2009) can be followed below.

Experiment [1] has as its target T1, SIRT1 (Homo sapiens, UniProt Q96EB6).
T1 sequence (Q96EB6 1-747): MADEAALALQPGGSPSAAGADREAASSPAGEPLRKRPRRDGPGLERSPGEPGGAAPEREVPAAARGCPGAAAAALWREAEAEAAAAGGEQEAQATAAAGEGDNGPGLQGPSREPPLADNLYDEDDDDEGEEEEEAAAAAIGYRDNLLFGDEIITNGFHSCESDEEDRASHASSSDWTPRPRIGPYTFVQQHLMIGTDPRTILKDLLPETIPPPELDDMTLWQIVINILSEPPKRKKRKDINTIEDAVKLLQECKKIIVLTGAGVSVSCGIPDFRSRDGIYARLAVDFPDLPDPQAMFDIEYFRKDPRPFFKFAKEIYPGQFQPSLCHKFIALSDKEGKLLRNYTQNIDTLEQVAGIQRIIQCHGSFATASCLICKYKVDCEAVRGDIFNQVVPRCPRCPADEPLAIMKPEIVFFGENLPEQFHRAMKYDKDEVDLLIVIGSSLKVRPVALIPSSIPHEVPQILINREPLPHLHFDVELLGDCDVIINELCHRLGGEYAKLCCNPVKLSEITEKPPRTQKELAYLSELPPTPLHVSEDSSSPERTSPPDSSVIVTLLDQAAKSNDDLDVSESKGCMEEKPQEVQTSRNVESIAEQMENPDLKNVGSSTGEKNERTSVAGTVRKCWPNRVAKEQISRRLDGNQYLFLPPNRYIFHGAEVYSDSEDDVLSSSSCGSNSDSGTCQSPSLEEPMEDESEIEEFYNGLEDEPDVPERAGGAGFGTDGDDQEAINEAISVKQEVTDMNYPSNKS
Kind of experiment: SIRT1 fluorescence polarization or mass spectrometry based assay (format not given). The following applies: inhibition of SIRT1 (Table 5). It is filed as biochemical.

For experiment [2], the target named is T2, human SIRT3 (Homo sapiens, UniProt Q9NTG7).
T2 construct: The SIRT3 protein used in the assays corresponded to amino acid residues 102-399 of human SIRT3; His-tag (N); made in house; host or cells: E. coli
T2 sequence (Q9NTG7 102-399): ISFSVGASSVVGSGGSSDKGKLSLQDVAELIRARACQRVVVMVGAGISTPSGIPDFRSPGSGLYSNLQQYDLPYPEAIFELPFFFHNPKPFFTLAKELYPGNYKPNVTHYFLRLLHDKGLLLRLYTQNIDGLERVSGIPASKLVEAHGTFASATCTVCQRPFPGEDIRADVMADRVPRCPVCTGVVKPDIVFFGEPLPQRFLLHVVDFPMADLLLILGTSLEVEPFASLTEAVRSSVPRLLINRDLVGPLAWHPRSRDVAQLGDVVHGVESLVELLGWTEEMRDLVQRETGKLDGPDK
Kind of experiment: Fluorescence polarization assay of SIRT3 activity (Histone H4-based peptide substrate). The experiment is classed as biochemical. The following applies: inhibition of SIRT3 (Table 7). The text has this: A fluorescence polarization assay was used to identify modulators of SIRT3 activity. The same assay may be used to identify modulators of any sirtuin protein. The assay utilizes a peptide substrate based on a fragment of Histone H4, a known sirtuin deacetylation target. The substrate contains a peptide having 14 amino acid residues as follows: Biotin-GASSHSK(Ac)VLK(MR121) (SEQ ID NO: 3) wherein K(Ac) is an acetylated lysine residue. The peptide is labeled with the fluorophore MR121 (excitation 635 nm/emission 680 nm) at the C-terminus and biotin at the N-terminus.
The peptide substrate is exposed to a sirtuin protein in the presence of NAD^+ to allow deacetylation of the substrate and render it sensitive to cleavage by trypsin. Trypsin is then added and the reaction is carried to completion (i.e., the deacetylated substrate is cleaved) releasing the MR121 fragment. Streptavidin is then added to the reaction where it can bind both the uncleaved substrate (i.e., any remaining acetylated substrate) and the non-fluorescent portion of the cleaved peptide substrate (i.e., the biotin containing fragment). The fluorescence polarization signal observed for the full length peptide substrate bound to streptavidin is higher than the fluorescence polarization signal observed for the released MR121C-terminal fragment. Therefore, the fluorescence polarization obtained is inversely proportional to the level of deacetylation (e.g., the signal is inversely proportional to the activity of the sirtuin protein). Results are read on a microplate fluorescence polarization reader (Molecular Devices Spectramax MD) with appropriate excitation and emission filters.
The fluorescence polarization assays may be conducted as follows: 0.5 μM peptide substrate and 50 μM βNAD^+ is incubated with 2 nM of SIRT3 for 60 minutes at 37° C. in a reaction buffer (25 mM Tris-acetate pH8, 137 mM Na—Ac, 2.7 mM K—Ac, 1 mM Mg—Ac, 0.1% Pluronic F127, 10 mM CaCl2, 1 mM TCEP, 0.025% BSA). Test compounds are solubilized in DMSO and are added to the reaction at 11 concentrations ranging from 0.7 μM to 100 μM. The SIRT3 protein used in the assays corresponded to amino acid residues 102-399 of human SIRT3 with an N-terminal His-tag. […] Fluorescent polarization is determined at excitation (650 nm) and emissions (680 nm) wavelengths. The level of activity of the sirtuin protein in the presence of the various concentrations of test compound are then determined and may be compared to the level of activity of the sirtuin protein in the absence of the test compound, and/or the level of activity of the sirtuin proteins in the negative control (e.g., level of inhibition) and positive control (e.g., level of activation) described below. […]
A general note: Polarisation of emitted light reports the rotation of a fluorescent probe.

For orientation: IC50 means the concentration at which inhibition is half-maximal. Lower therefore signals greater potency.

On to `COc1ccccc1C(=O)Nc1cccc(/C=C/C(=O)N2CCCNCC2)c1` [Compound 15], for which the IC50 in experiment [1] fell in the range of 101 to 150 µM; in experiment [2], 51 to 100 µM.
